{
  "source": "paper doi:10.1101/2021.07.15.452591v1",
  "about": "(biorxiv, 2021)",
  "target": "T1, AmnC (2-aminomuconic 6-semialdehyde dehydrogenase) (Pseudomonas sp., UniProt Q9KWS5, DEL124-138/DEL477-491)",
  "T1 sequence (Q9KWS5 1-476 DEL124-138)": "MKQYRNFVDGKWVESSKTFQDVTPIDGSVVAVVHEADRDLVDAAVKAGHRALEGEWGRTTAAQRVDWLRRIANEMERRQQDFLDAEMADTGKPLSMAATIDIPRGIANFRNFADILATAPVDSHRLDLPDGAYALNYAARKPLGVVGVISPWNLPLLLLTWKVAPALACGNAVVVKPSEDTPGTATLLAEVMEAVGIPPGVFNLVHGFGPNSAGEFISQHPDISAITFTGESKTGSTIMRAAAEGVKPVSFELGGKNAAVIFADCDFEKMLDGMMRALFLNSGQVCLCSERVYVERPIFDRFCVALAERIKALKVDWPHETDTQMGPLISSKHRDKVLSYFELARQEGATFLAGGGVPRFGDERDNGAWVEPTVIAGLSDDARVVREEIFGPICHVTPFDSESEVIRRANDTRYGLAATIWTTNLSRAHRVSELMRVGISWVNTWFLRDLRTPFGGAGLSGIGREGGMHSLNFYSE",
  "test": "microscale thermophoresis",
  "assay_type": "binding",
  "data": [
    {"smiles": "NC(=O)c1ccc[n+]([C@@H]2O[C@H](COP(=O)(O)OP(=O)(O)OC[C@H]3O[C@@H](n4cnc5c(N)ncnc54)[C@H](O)[C@@H]3O)[C@@H](O)[C@H]2O)c1", "note": "[NAD^+]", "values": [
      {"measurement": "Kd", "result": "3 ± 0.3", "unit": "mM"}
    ]}
  ]
}
